ChEMBL document CHEMBL1201862, “PubChem BioAssay data set” (2004)
Calls of active or inactive are those of the source. For most assays here, no stated cut-off is given here; in the data, actives have a measured EC50 and inactives only a lower limit.

Experiments:
[1] = test system: Streptococcus sp. 'group A'; assay: Streptococcus pyogenes SK(-)GAS viability under kanamycin – luminescence, BacTiterGlo, confirmation, counter-screen for streptokinase expression inhibitor project, dose response (AID 1900); format: functional, organism-based
[2] = test system: H4; assay: Luminescence Cell-Based Dose Response HTS to Identify Activators of 5'UTR Stem-Loop Driven Prion Protein mRNA Translation in H4 Neuroglioblastoma Cells. [Related pubchem assays: 1829 (Project Summary), 1814 (Primary HTS)]; format: functional; details: Homo sapiens
[3] = NIH3T3 cell viability loss – ATP luminescence, mouse fibroblasts, counter-screen, dose response (AID 2010); format: functional, cell-based;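 further: cells exposed to compound for about 90 hours before reading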
[4] = Luminescence Cell-Based Dose Response HTS to Identify Activators of Luciferase Translation or Activity in H4 […] Cells. [Related pubchem assays: 1829 (Project Summary), 1814 (Primary HTS)]; format: functional
[5] = target: T1, Streptokinase A (Streptococcus pyogenes serotype M1, UniProt P10520); assay: viability-normalized secreted streptokinase activity reduction – plasminogen activation absorbance, OD405, dose response (AID 1914); format: functional, Streptococcus pyogenes M1 GAS;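 further: secreted streptokinase activity via plasminogen activation per viability signal from cell pellet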
T1 sequence (P10520 whole entry): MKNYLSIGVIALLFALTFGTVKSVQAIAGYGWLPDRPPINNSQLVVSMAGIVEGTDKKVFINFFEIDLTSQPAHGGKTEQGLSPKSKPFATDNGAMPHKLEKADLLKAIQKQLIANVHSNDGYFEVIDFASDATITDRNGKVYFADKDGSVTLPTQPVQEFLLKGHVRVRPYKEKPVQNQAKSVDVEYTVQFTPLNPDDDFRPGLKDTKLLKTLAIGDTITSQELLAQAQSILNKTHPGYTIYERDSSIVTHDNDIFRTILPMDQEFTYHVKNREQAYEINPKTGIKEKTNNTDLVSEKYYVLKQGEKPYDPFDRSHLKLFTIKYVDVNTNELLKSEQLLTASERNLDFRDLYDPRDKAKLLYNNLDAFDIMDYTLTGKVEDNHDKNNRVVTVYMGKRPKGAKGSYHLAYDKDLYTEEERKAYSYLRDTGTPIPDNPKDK

[6] = target: Nonstructural protein 1 (Influenza A virus, UniProt Q194T2); format: functional, Influenza A virus (A/California/07/2009(H1N1))
Nonstructural protein 1, sequence (Q194T2 whole entry): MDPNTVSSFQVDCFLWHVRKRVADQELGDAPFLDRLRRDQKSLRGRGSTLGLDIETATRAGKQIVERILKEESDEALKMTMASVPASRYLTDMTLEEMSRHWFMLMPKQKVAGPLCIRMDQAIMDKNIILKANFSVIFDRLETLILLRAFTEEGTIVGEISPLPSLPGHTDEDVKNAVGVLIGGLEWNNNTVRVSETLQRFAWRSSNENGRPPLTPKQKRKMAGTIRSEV

[7] = Trypanosoma cruzi growth suppression in host cells – NIH3T3 host cells, beta-gal luminescence, confirmation (AID 2044); format: functional, cell-based;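 further: intracellular parasites grown in NIH/3T3 mouse fibroblasts as host cells; luminescent beta-galactosidase reporter signal from transgenic T. cruzi replicating inside host cells; inhibitors lower the luminescence signal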
[8] = test system: Streptococcus; assay: GAS UMAA2166 growth inhibition – luminescence, BacTiterGlo, counter-screen for streptokinase expression inhibitor project, dose response (AID 1915); format: functional, organism-based;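 further: potency for reduction of bacterial viability or growth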
[9] = target: Heat shock protein HSP 90-alpha (Homo sapiens, UniProt P07900); format: functional, organism-based
[10] = viability loss in THP-1 monocytes – THP-1 cells, cytotoxicity control for Vif-APOBEC3G degradation inhibitor project, dose response (AID 1117359); format: functional; details: THP-1
[11] = fluconazole-exposed Candida albicans growth modulators – fluorescence, retest, confirmation (AID 2467); format: functional, cell-based
[12] = target: T2, Coagulation factor XII (Homo sapiens, UniProt P00748); format: functional;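 further: activated factor XIIa alpha cleaving a fluorogenic AMC peptide substrate; inhibitor potency from loss of enzyme activity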
T2 sequence (P00748 whole entry): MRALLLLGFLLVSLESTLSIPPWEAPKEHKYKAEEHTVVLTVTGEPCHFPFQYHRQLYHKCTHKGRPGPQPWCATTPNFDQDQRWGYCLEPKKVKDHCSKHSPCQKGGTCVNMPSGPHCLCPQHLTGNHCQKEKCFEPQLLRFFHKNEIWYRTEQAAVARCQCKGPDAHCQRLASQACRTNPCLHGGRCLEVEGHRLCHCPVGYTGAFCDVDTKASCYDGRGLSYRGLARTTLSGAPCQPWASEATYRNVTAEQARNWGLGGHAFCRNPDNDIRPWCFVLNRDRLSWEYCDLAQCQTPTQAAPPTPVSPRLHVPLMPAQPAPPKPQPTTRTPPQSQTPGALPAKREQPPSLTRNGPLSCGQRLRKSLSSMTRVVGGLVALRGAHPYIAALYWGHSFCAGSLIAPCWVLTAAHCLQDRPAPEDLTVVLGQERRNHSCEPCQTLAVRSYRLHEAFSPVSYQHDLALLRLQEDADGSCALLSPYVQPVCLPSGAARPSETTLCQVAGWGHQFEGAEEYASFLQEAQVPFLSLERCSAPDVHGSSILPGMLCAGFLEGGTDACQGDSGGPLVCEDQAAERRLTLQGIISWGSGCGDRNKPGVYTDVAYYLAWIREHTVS

[13] = DRD fibroblast viability loss – cell-based, non-viral oncogenic, luminescence, dose response (AID 1934); format: functional; details: Homo sapiens
[14] = test system: BJ; assay: BJ-TERT-LT-ST fibroblast viability loss – cell-based, RAS-independent, luminescence, dose response (AID 1935); format: functional; details: Homo sapiens;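 further: BJ fibroblasts immortalized with TERT plus LT and ST oncogenes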
[15] = test system: BJ; assay: cells; format: functional, cell-based; details: Homo sapiens
[16] = NIH-3T3 fibroblast cytotoxicity, dose response, cytotoxicity control, cell-based, fluorescence, Alamar Blue, secondary assay (AID 2327); format: functional;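 further: NIH-3T3 mouse fibroblasts cultured with fluconazole at 8 µg/mL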
[17] = test system: BJ; assay: BJ-TERT fibroblast viability loss – cell-based, RAS-independent, luminescence, dose response (AID 1933); format: functional; details: Homo sapiens
[18] = target: T3, Aminopeptidase N (Plasmodium falciparum FcB1/Columbia, UniProt O96935); assay: malaria alanyl aminopeptidase activity blockers – biochemical, fluorogenic H-Leu-NHMec substrate, 1536-well (AID 1445); parameters: species or system Plasmodium falciparum 3D7, 3D7
T3 sequence (O96935 whole entry): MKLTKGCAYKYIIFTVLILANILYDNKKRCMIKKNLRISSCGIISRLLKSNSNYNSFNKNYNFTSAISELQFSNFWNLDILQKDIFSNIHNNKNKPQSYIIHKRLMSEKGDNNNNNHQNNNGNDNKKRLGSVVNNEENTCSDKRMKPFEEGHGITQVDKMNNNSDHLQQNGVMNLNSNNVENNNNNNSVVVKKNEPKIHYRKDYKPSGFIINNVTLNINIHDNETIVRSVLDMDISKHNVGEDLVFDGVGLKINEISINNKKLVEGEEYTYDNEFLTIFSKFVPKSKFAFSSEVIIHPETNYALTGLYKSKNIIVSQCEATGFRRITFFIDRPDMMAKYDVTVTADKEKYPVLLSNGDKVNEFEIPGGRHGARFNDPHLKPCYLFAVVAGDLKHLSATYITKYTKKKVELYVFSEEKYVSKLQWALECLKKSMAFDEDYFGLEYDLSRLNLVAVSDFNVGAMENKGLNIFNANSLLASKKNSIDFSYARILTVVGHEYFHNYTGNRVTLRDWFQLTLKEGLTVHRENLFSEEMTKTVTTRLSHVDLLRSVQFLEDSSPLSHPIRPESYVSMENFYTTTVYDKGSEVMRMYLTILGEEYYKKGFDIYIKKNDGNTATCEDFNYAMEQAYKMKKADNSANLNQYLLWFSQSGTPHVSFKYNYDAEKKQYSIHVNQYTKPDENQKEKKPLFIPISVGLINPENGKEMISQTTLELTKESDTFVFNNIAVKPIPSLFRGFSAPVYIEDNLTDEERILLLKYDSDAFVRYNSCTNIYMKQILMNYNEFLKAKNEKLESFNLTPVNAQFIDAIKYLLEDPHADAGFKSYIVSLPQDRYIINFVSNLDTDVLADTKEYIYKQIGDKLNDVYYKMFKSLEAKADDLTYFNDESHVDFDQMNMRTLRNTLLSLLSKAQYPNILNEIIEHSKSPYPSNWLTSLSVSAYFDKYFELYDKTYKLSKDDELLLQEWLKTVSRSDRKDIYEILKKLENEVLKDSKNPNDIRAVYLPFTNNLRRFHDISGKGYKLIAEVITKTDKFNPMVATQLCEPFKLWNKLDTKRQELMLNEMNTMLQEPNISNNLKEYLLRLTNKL

[19] = target: T4, Corticotropin-releasing factor receptor 2/Corticotropin-releasing factor-binding protein (Homo sapiens, UniProt P24387+Q13324); assay: activators of CRF receptor 2 with binding protein – uHTS hits, confirmation (AID 602473); format: functional; details: read-out: EC50_Mean
T4 sequence (Q13324 whole entry): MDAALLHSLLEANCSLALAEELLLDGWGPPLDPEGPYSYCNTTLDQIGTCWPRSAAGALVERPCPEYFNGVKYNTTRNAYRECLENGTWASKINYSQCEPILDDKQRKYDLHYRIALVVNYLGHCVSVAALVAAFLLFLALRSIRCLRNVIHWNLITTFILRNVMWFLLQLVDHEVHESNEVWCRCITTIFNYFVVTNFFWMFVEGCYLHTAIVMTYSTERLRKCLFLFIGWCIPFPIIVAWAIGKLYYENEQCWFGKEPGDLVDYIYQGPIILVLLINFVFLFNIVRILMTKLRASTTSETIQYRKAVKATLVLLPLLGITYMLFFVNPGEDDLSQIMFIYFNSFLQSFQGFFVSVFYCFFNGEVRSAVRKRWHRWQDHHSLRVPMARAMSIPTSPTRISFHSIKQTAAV
T4 sequence (P24387 whole entry): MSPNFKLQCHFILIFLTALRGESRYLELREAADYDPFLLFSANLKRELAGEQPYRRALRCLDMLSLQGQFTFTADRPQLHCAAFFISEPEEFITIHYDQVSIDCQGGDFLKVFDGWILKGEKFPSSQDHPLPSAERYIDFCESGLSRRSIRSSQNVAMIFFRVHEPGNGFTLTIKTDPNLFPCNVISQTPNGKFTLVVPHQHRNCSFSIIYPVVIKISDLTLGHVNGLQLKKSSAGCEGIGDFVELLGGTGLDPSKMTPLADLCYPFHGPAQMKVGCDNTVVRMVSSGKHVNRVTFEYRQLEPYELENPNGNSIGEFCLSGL

[20] = test system: Vero; assay: cells; format: functional; details: Chlorocebus sabaeus
[21] = THP-1 cell cytotoxicity, dose response, cytotoxicity control for non-replicating M. tuberculosis project (AID 489025); format: functional
[22] = HepG2 cell cytotoxicity, dose response, cytotoxicity control for non-replicating M. tuberculosis project (AID 489018); format: functional; details: Mycobacterium tuberculosis
[23] = viability of HCT116 lacking mutant beta-catenin – cell-based, human colon tumor, dose response (AID 1045); format: functional;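 further: HCT116 colon tumor cells with beta catenin knocked out; cells exposed to compound for 60 hours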
[24] = viability of PTEN-deleted HCT116 cells – cell-based, HCT116 PTEN knockout, dose response (AID 1047); format: functional;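 further: HCT116 colon tumor cells with PTEN knocked out; cells exposed to compound for 60 hours before readout; potency for loss of cell viability measured by luminescence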
[25] = alpha-synuclein stem-loop luciferase translation blockers – H4 neuroglioma cells, luminescence, confirmation (AID 1988); format: functional, cell-based
[26] = Luminescence Cell-Based Dose Response HTS to Identify Inhibitors of 5'UTR Stem-Loop Driven Prion Protein mRNA Translation in H4 Neuroglioblastoma Cells. [Related pubchem assays: 1827 (Project Summary), 1813 (Primary HTS)]; format: functional
[27] = luciferase reporter signal suppression in cells – H4 neuroglioma cells, luminescence, dose response (AID 1990); format: functional, cell-based

## Nc1nc(-c2ccccn2)nc(N)c1Cc1ccccc1F
[1]
  EC50: 11 µM (active)
[2]
  EC50: 0.414 µM (active)
[3]
  EC50: > 60 µM (not active)
[4]
  EC50: 5.85 µM (active)
[5]
  EC50: > 150 µM (not active)
[6]
  IC50: 6.51 µM (active)
[7]
  EC50: 2.52 µM (active)
[8]
  EC50: > 150 µM (not active)

## CCC(C)(C)n1nnnc1C(c1cccnc1)N1CCC(Cc2ccccc2)CC1 (stereo not drawn)
[3]
  EC50: 49 µM (active)
[9]
  AC50: 1.09 µM (active)
[7]
  EC50: 0.151 µM (active)

## COc1ccccc1N1CCN(C(=O)c2ccoc2C)CC1
[10]
  CC50: > 40 µM (active)

## CCOc1ccc(-c2c(C)[n+](-c3ccc(OCC)cc3)c3n2CCCCC3)cc1.[O-][Cl+3]([O-])([O-])[O-]
[11]
  EC50: 2.36 µM (active)
[12]
  IC50: > 50 µM (inactive)
[13]
  EC50: 13.5 µM (inconclusive)
[14]
  EC50: 17.1 µM (active)
[15]
  EC50: 8.54 µM (active)
[16]
  EC50: 39.3 µM (active)
[17]
  EC50: 9.44 µM (inconclusive)

## Cc1cccc(N2CCN(S(=O)(=O)c3c(C)noc3/C=C/N(C)C)CC2)c1C
[9]
  AC50: 4.74 µM (active)

## C=CCn1c(CNC(=O)c2ccccc2F)nnc1SCC(=O)NC(C)c1ccccc1 (stereo not drawn)
[18]
  IC50: 103 µM (active)

## COCCOC(=O)/C(=C/c1ccc(OC(=O)c2ccccc2)cc1)C(C)=O
[19]
  EC50: > 53 µM (inactive)
[9]
  AC50: 3.02 µM (active)

## Nc1nnc(SCC(=O)Nc2ccccc2-c2ccccc2)[nH]1
[18]
  IC50: 51.2 µM (active)

## CCN(CC(=O)NC(C)(C)C)C(=O)CCl
[20]
  CC50: 22.2 µM (active)

## COc1ccc2cc(C(=O)NCc3ccccc3CN3CCCC3)ccc2c1
[21]
  CC50: > 40 µM (active)
[22]
  CC50: > 20 µM (active)

## CCOC(=O)CC1C(=O)NCCN1c1nc2ccc(C)cn2c(=O)c1/C=C1\SC(=S)N(CC(C)C)C1=O (stereo not drawn)
[18]
  IC50: 35.7 µM (active)

## COc1cc(/C=C(/C#N)c2nc3ccccc3[nH]2)ccc1OCC(=O)Nc1ccccc1C(C)C
[23]
  EC50: 3.91 µM (active)
[24]
  EC50: 19.6 µM (active)
[13]
  EC50: 2.81 µM (active)
[25]
  EC50: 0.56 µM (active)
[14]
  EC50: 5.76 µM (inconclusive)
[26]
  EC50: 3.34 µM (active)
[15]
  EC50: 3.15 µM (active)
[27]
  EC50: 1.4 µM (active)
[17]
  EC50: 2.97 µM (active)

## O=C(NN1C(=O)c2ccccc2NC1c1ccoc1)c1ccccc1 (stereo not drawn)
[18]
  IC50: 46.5 µM (active)

## O=C(c1ccco1)N1CCN(C(=O)c2cn(-c3ccccc3)nc2-c2ccccc2)CC1
[10]
  CC50: 32.8 µM (active)

## COc1ccc2nc(N3CCN(C(=O)c4ccc5ncsc5c4)CC3)sc2c1
[10]
  CC50: > 40 µM (active)

## Cc1ccc(C(=O)/C=C/c2cc(C#N)n(C)c2C)cc1
[10]
  CC50: > 40 µM (active)

## CN(C)C=O.NS(=O)(=O)c1cccc(NC(=O)CSc2nc(O)c3c(C(F)(F)F)cc(-c4cccs4)nc3n2)c1
[18]
  IC50: 30.5 µM (active)

## Cc1ccccc1S(=O)(=O)Nc1ncnc2scc(-c3ccccc3)c12
[18]
  IC50: 24.3 µM (active)
